Test system: Acinetobacter baumannii strains
Test: Antibiotic susceptibility test (CLSI disk diffusion test method, read per CLSI 2016)
Format: cell-based
Protocol: (§1) Strain identification was performed using a kit such as AT 32 GN system (bioMérieux, Marcy l'Etoile, France). […] In Table 2 below, S, I, and R are the results obtained by evaluating susceptibility to the antibacterial agents, in which ‘S’ means susceptible, ‘I’ means intermediate, and ‘R’ means resistant.
as §1, with “as ATB” for “as AT”, “system (bioMédrieux,” for “system (bioMérieux,”, “Table 6” for “Table 2”
as §1, with “as ATB” for “as AT”, “Table 10” for “Table 2”, “susceptible, T” for “susceptible, ‘I’”

SMILES: C[C@@H](O)[C@H]1C(=O)N2C(C(=O)O)=C(SCCN=CN)C[C@H]12 [Imipenem, imipenem]
- antibiotic susceptibility class (host strain YMC14/01/C29): R
- antibiotic susceptibility class (host strain YMC14/01/IP122): R
- antibiotic susceptibility class (host strain YMC14/01/L8): R
- antibiotic susceptibility class (host strain YMC14/01/P31): R
- antibiotic susceptibility class (host strain YMC14/01/P117): R
- antibiotic susceptibility class (host strain YMC14/01/P224): R
- antibiotic susceptibility class (host strain YMC14/01/P727): R
- antibiotic susceptibility class (host strain YMC14/01/P728): R
- antibiotic susceptibility class (host strain YMC14/01/R130): R
- antibiotic susceptibility class (host strain YMC14/01/R160): R
- antibiotic susceptibility class (host strain YMC14/01/R198): R
- antibiotic susceptibility class (host strain YMC14/01/R257): R
- antibiotic susceptibility class (host strain YMC14/01/R270): R
- antibiotic susceptibility class (host strain YMC14/01/R324): R
- antibiotic susceptibility class (host strain YMC14/01/R443): R
- antibiotic susceptibility class (host strain YMC14/01/R451): R
- antibiotic susceptibility class (host strain YMC14/01/R560): R
- antibiotic susceptibility class (host strain YMC14/01/R617): R
- antibiotic susceptibility class (host strain YMC14/01/R671): R
- antibiotic susceptibility class (host strain YMC14/01/R732): R
- antibiotic susceptibility class (host strain YMC14/01/R767): R
- antibiotic susceptibility class (host strain YMC14/01/R904): R
- antibiotic susceptibility class (host strain YMC14/01/R905): R
- antibiotic susceptibility class (host strain YMC14/01/R921): R
- antibiotic susceptibility class (host strain YMC14/01/R941): R
- antibiotic susceptibility class (host strain YMC14/01/R958): R
- antibiotic susceptibility class (host strain YMC14/01/R1006): R
- antibiotic susceptibility class (host strain YMC14/01/R1199): R
- antibiotic susceptibility class (host strain YMC14/01/R1659): R
- antibiotic susceptibility class (host strain YMC14/01/R1722): R
- antibiotic susceptibility class (host strain YMC14/01/R1752): R
- antibiotic susceptibility class (host strain YMC14/01/R2429): R
- antibiotic susceptibility class (host strain YMC14/01/R2572): R
- antibiotic susceptibility class (host strain YMC14/01/R2855): R
- antibiotic susceptibility class (host strain YMC14/01/R2945): R
- antibiotic susceptibility class (host strain YMC14/01/R3007): R
- antibiotic susceptibility class (host strain YMC14/01/R3129): R
- antibiotic susceptibility class (host strain YMC14/01/R3317): R
- antibiotic susceptibility class (host strain YMC14/01/R3474): R
- antibiotic susceptibility class (host strain YMC14/01/R3574): R
- antibiotic susceptibility class (host strain YMC14/01/U313): R
- antibiotic susceptibility class (host strain YMC14/01/U318): R
- antibiotic susceptibility class (host strain YMC14/02/L18): R
- antibiotic susceptibility class (host strain YMC14/02/P47): R
- antibiotic susceptibility class (host strain YMC14/02/R1860): R
- antibiotic susceptibility class (host strain YMC14/02/R2417): R
- antibiotic susceptibility class (host strain YMC14/02/R2599): R
- antibiotic susceptibility class (host strain YMC14/02/R2668): R
- antibiotic susceptibility class (host strain YMC14/02/R2758): R
- antibiotic susceptibility class (host strain YMC14/02/R2781): R
- antibiotic susceptibility class (host strain YMC14/02/R3106): R
- antibiotic susceptibility class (host strain YMC14/02/R3419): R
- antibiotic susceptibility class (host strain YMC14/02/U1607): R
- antibiotic susceptibility class (host strain YMC14/03/L9): R
- antibiotic susceptibility class (host strain YMC14/03/P471): R
- antibiotic susceptibility class (host strain YMC14/03/R122): R
- antibiotic susceptibility class (host strain YMC14/03/R217): R
- antibiotic susceptibility class (host strain YMC14/03/R380): R
- antibiotic susceptibility class (host strain YMC14/03/R618): R
- antibiotic susceptibility class (host strain YMC14/03/R2144): R
- antibiotic susceptibility class (host strain YMC14/03/U4616): R
- antibiotic susceptibility class (host strain YMC14/04/R1078): R
- antibiotic susceptibility class (host strain YMC14/04/R1080): R
- antibiotic susceptibility S/I/R (host strain YMC14/06/R2359): R
- susceptibility category (S/I/R) (host strain YMC14/06/R2359): R
- antibiotic susceptibility S/I/R (host strain YMC14/08/R1169): R
- susceptibility category (S/I/R) (host strain YMC14/08/R1169): R
- antibiotic susceptibility S/I/R (host strain YMC14/08/T90): R
- susceptibility category (S/I/R) (host strain YMC14/08/T90): R
- antibiotic susceptibility S/I/R (host strain YMC15/02/R436): R
- susceptibility category (S/I/R) (host strain YMC15/02/R436): R
- antibiotic susceptibility S/I/R (host strain YMC15/02/T28): R
- susceptibility category (S/I/R) (host strain YMC15/02/T28): R
- antibiotic susceptibility S/I/R (host strain YMC15/03/R1604): R
- susceptibility category (S/I/R) (host strain YMC15/03/R1604): R
- antibiotic susceptibility S/I/R (host strain YMC15/09/R1869): R
- susceptibility category (S/I/R) (host strain YMC15/09/R1869): R
- antibiotic susceptibility S/I/R (host strain YMC16/01/P11): R
- susceptibility category (S/I/R) (host strain YMC16/01/P11): R
- antibiotic susceptibility S/I/R (host strain YMC16/01/R123): R
- susceptibility category (S/I/R) (host strain YMC16/01/R123): R
- antibiotic susceptibility S/I/R (host strain YMC16/01/R198): R
- susceptibility category (S/I/R) (host strain YMC16/01/R198): R
- antibiotic susceptibility S/I/R (host strain YMC16/01/R353): R
- susceptibility category (S/I/R) (host strain YMC16/01/R353): R
- antibiotic susceptibility S/I/R (host strain YMC16/01/R380): R
- susceptibility category (S/I/R) (host strain YMC16/01/R380): R
- antibiotic susceptibility S/I/R (host strain YMC16/01/R397): R
- susceptibility category (S/I/R) (host strain YMC16/01/R397): R
- antibiotic susceptibility S/I/R (host strain YMC16/01/R405): R
- susceptibility category (S/I/R) (host strain YMC16/01/R405): R
- antibiotic susceptibility S/I/R (host strain YMC16/03/R4461): R
- susceptibility category (S/I/R) (host strain YMC16/03/R4461): R
- antibiotic susceptibility S/I/R (host strain YMC16/05/R2210): R
- susceptibility category (S/I/R) (host strain YMC16/05/R2210): R
- antibiotic susceptibility S/I/R (host strain YMC16/07/R2512): R
- susceptibility category (S/I/R) (host strain YMC16/07/R2512): R
- antibiotic susceptibility S/I/R (host strain YMC16/09/R2471): R
- susceptibility category (S/I/R) (host strain YMC16/09/R2471): R
- antibiotic susceptibility S/I/R (host strain YMC16/10/R2537): R
- susceptibility category (S/I/R) (host strain YMC16/10/R2537): R
- antibiotic susceptibility S/I/R (host strain YMC16/12/B11422): R
- susceptibility category (S/I/R) (host strain YMC16/12/B11422): R
- antibiotic susceptibility S/I/R (host strain YMC16/12/B11449): R
- susceptibility category (S/I/R) (host strain YMC16/12/B11449): R
- antibiotic susceptibility S/I/R (host strain YMC16/12/B13325): R
- susceptibility category (S/I/R) (host strain YMC16/12/B13325): R
- antibiotic susceptibility S/I/R (host strain YMC16/12/P503): R
- susceptibility category (S/I/R) (host strain YMC16/12/P503): R
- antibiotic susceptibility S/I/R (host strain YMC16/12/R4637): R
- susceptibility category (S/I/R) (host strain YMC16/12/R4637): R
- antibiotic susceptibility S/I/R (host strain YMC17/01/B8053): R
- susceptibility category (S/I/R) (host strain YMC17/01/B8053): R
- antibiotic susceptibility S/I/R (host strain YMC17/01/B10087): R
- susceptibility category (S/I/R) (host strain YMC17/01/B10087): R
- antibiotic susceptibility S/I/R (host strain YMC17/01/B12075): R
- susceptibility category (S/I/R) (host strain YMC17/01/B12075): R
- antibiotic susceptibility S/I/R (host strain YMC17/01/B13454): R
- susceptibility category (S/I/R) (host strain YMC17/01/B13454): R
- antibiotic susceptibility S/I/R (host strain YMC17/01/P518): R
- susceptibility category (S/I/R) (host strain YMC17/01/P518): R
- antibiotic susceptibility S/I/R (host strain YMC17/01/R2812): R
- susceptibility category (S/I/R) (host strain YMC17/01/R2812): R
- antibiotic susceptibility S/I/R (host strain YMC17/02/B14): R
- susceptibility category (S/I/R) (host strain YMC17/02/B14): R
- antibiotic susceptibility S/I/R (host strain YMC17/02/B87): R
- susceptibility category (S/I/R) (host strain YMC17/02/B87): R
- antibiotic susceptibility S/I/R (host strain YMC17/02/B721): R
- susceptibility category (S/I/R) (host strain YMC17/02/B721): R
- antibiotic susceptibility S/I/R (host strain YMC17/02/B4039): R
- susceptibility category (S/I/R) (host strain YMC17/02/B4039): R
- antibiotic susceptibility S/I/R (host strain YMC17/02/B4520): R
- susceptibility category (S/I/R) (host strain YMC17/02/B4520): R
- antibiotic susceptibility S/I/R (host strain YMC17/02/B4864): S
- susceptibility category (S/I/R) (host strain YMC17/02/B4864): S
- antibiotic susceptibility S/I/R (host strain YMC17/02/B8414): R
- susceptibility category (S/I/R) (host strain YMC17/02/B8414): R
- antibiotic susceptibility S/I/R (host strain YMC17/02/P523): R
- susceptibility category (S/I/R) (host strain YMC17/02/P523): R
- antibiotic susceptibility S/I/R (host strain YMC17/02/R541): R
- susceptibility category (S/I/R) (host strain YMC17/02/R541): R
- antibiotic susceptibility S/I/R (host strain YMC17/02/R2392): R
- susceptibility category (S/I/R) (host strain YMC17/02/R2392): R
- antibiotic susceptibility S/I/R (host strain YMC17/03/B4730): R
- susceptibility category (S/I/R) (host strain YMC17/03/B4730): R
- antibiotic susceptibility S/I/R (host strain YMC17/03/B5000): R
- susceptibility category (S/I/R) (host strain YMC17/03/B5000): R
- antibiotic susceptibility S/I/R (host strain YMC17/03/P971): R
- susceptibility category (S/I/R) (host strain YMC17/03/P971): R
- antibiotic susceptibility S/I/R (host strain YMC17/03/R348): R
- susceptibility category (S/I/R) (host strain YMC17/03/R348): R
- antibiotic susceptibility S/I/R (host strain YMC17/03/R585): R
- susceptibility category (S/I/R) (host strain YMC17/03/R585): R
- antibiotic susceptibility S/I/R (host strain YMC17/03/R1888): R
- susceptibility category (S/I/R) (host strain YMC17/03/R1888): R
- antibiotic susceptibility S/I/R (host strain YMC17/03/R3279): R
- susceptibility category (S/I/R) (host strain YMC17/03/R3279): R
- antibiotic susceptibility S/I/R (host strain YMC17/03/R4077): R
- susceptibility category (S/I/R) (host strain YMC17/03/R4077): R
- antibiotic susceptibility S/I/R (host strain YMC17/03/R4607): R
- susceptibility category (S/I/R) (host strain YMC17/03/R4607): R
- antibiotic susceptibility S/I/R (host strain YMC17/04/R488): R
- susceptibility category (S/I/R) (host strain YMC17/04/R488): R
- antibiotic susceptibility S/I/R (host strain YMC17/04/R640): R
- susceptibility category (S/I/R) (host strain YMC17/04/R640): R
- antibiotic susceptibility S/I/R (host strain YMC/17/05/R1095): R
- susceptibility category (S/I/R) (host strain YMC/17/05/R1095): R
